In PubChem BioAssay (NCI) one finds GI50 and TGI data, which are given here for 9 compounds.

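1) Cells in 96-well plates. 2) Compound, 48 h, 5 concentrations. 3) Linear interpolation between surrounding doses. 4) Unreached endpoint = highest concentration. The concentration for 50% growth inhibition is given as GI50. TGI: concentration producing complete growth inhibition.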

Among the test systems are 786-0 renal; ACHN renal; BT-549 breast; COLO 205 colon; HOP-92 NSCLC; LOX IMVI melanoma; MCF7 breast; MDA-MB-231 breast; NCI-H522 lung; SR leukemia.
Common to all, as to experiment: NCI anticancer screen, dose series, 48 h

As to `CC(=O)c1cc(C(=O)c2ccc3c(c2)Sc2ccccc2N3)c2c(C)cccn12`, the GI50 is 0.488 µM with 786-0 renal; 1.42 µM with ACHN renal; 0.777 µM in the assay on BT-549 breast; 0.187 µM in the assay with COLO 205 colon; 0.767 µM with HOP-92 NSCLC; 0.595 µM in the assay with LOX IMVI melanoma. Also, the GI50 is 0.117 µM in the assay on MCF7 breast, 0.488 µM with MDA-MB-231 breast and 0.0328 µM with NCI-H522 lung. Also, the TGI in the assay with 786-0 renal was 7.29 µM; in the assay with ACHN renal it was over 100 µM; in the assay on BT-549 breast it was 23.8 µM; with COLO 205 colon it was 0.426 µM; in the assay on HOP-92 NSCLC, 22.6 µM; in the assay on LOX IMVI melanoma, 4.61 µM. Besides, the TGI in the assay on MCF7 breast was over 100 µM; in the assay with MDA-MB-231 breast it was 10.6 µM; in the assay with NCI-H522 lung, 0.199 µM.

Take `CC12CCC3c4cc(Br)c(O)c(Br)c4CCC3C1CCC2O` (configuration not stated): the TGI in the assay with 786-0 renal was 42 µM; with ACHN renal it was 73.7 µM; in the assay on BT-549 breast, 30.2 µM; in the assay with COLO 205 colon, 70.1 µM; with LOX IMVI melanoma it was 63.6 µM; in the assay on MCF7 breast, 74.6 µM. In the assay on MDA-MB-231 breast, this compound had a TGI of 27.4 µM.

Take `Nc1ccccc1C#C/C=C\C#Cc1c(F)c(F)c(F)c(F)c1F`: the GI50 in the assay on 786-0 renal is 12.3 µM; with ACHN renal, 14.5 µM; in the assay with BT-549 breast, 10.3 µM; in the assay on COLO 205 colon it was 18.9 µM; with HOP-92 NSCLC, 19.5 µM; with LOX IMVI melanoma it was 2.68 µM. Moreover, the GI50 with MCF7 breast was 24.6 µM; in the assay on MDA-MB-231 breast, 2.76 µM; with NCI-H522 lung, 11.9 µM. Further, the TGI worked out at 30.5 µM in the assay on 786-0 renal; 30.7 µM with ACHN renal; 28.6 µM with BT-549 breast; 37.4 µM with COLO 205 colon; 41.4 µM in the assay with HOP-92 NSCLC; 14.6 µM in the assay with LOX IMVI melanoma. The results for the TGI with MCF7 breast, with MDA-MB-231 breast and in the assay on NCI-H522 lung were over 100 µM, 16.7 µM and 31.3 µM, respectively.

As for `C[C@@H]1COCCN1c1cc(C2([S@@](C)(=N)=O)CC2)nc(-c2ccnc3[nH]ccc23)n1`, the GI50 is 2.7 µM with 786-0 renal; 2.17 µM in the assay with ACHN renal; 2.68 µM in the assay with BT-549 breast; 7.69 µM in the assay with COLO 205 colon; 1.56 µM in the assay on HOP-92 NSCLC; 2.14 µM with LOX IMVI melanoma. Besides, the GI50 with MCF7 breast was 0.956 µM; with MDA-MB-231 breast it was 8.18 µM; in the assay on NCI-H522 lung, 8.05 µM. The TGI in the assay on 786-0 renal was 26.8 µM; in the assay on ACHN renal, over 51.3 µM; in the assay with BT-549 breast it was 23.7 µM; in the assay with COLO 205 colon, over 83.1 µM; in the assay with HOP-92 NSCLC, 15.4 µM; in the assay with LOX IMVI melanoma it was 14 µM. Besides, the TGI in the assay with MCF7 breast, in the assay on MDA-MB-231 breast and in the assay with NCI-H522 lung was over 100 µM each time.

`Cc1cn(-c2ccc(S(C)(=O)=O)cc2)c(-c2ccc(Cl)cc2)n1`: the GI50 in the assay on 786-0 renal, in the assay with ACHN renal, with BT-549 breast, with COLO 205 colon, with HOP-92 NSCLC and with LOX IMVI melanoma was over 100 µM throughout. Besides, the GI50 in the assay on MCF7 breast, with MDA-MB-231 breast and in the assay on NCI-H522 lung was over 100 µM in each case. In addition, the TGI in the assay on 786-0 renal, with ACHN renal, in the assay on BT-549 breast, with COLO 205 colon, in the assay with HOP-92 NSCLC and with LOX IMVI melanoma was over 100 µM in each case. Moreover, the TGI with MCF7 breast, with MDA-MB-231 breast and in the assay with NCI-H522 lung was over 100 µM each time.

For the compound `C=C1C(=O)O[C@H]2[C@H]1CC/C(COC(=O)NCCc1c[nH]c3ccc(Cl)cc13)=C\CC[C@@]1(C)O[C@@H]21`, the GI50 was 1.38 µM in the assay on 786-0 renal; 1.54 µM in the assay with ACHN renal; 1.44 µM with BT-549 breast; 1.85 µM with COLO 205 colon; 1.4 µM in the assay with HOP-92 NSCLC; 1.28 µM in the assay with LOX IMVI melanoma. The GI50 with MDA-MB-231 breast was 1.84 µM; with NCI-H522 lung, 1.69 µM; in the assay with SR leukemia, 0.944 µM. In addition, the TGI in the assay with 786-0 renal amounted to 2.79 µM; in the assay with ACHN renal it was 2.88 µM; in the assay on BT-549 breast, 2.99 µM; with COLO 205 colon, 3.59 µM; in the assay on HOP-92 NSCLC it was 2.84 µM; in the assay with LOX IMVI melanoma, 2.68 µM. In addition, the TGI in the assay on MDA-MB-231 breast came to 3.44 µM; in the assay with NCI-H522 lung, 3.35 µM; in the assay with SR leukemia, 5.95 µM.

`Oc1[nH]c2ccccc2c1N=Nc1c(F)c(F)c(F)c(F)c1F`: the TGI in the assay with 786-0 renal was 50.5 µM; in the assay on ACHN renal it was 36.8 µM; in the assay on BT-549 breast, over 100 µM; in the assay on COLO 205 colon, 28.3 µM; in the assay with LOX IMVI melanoma, over 66.7 µM; in the assay with MCF7 breast, over 100 µM. Further, the TGI in the assay on MDA-MB-231 breast was over 100 µM; in the assay with NCI-H522 lung, 47.7 µM; with SR leukemia, 14.4 µM.

Regarding `COc1ccc(N(/C=C/C(=O)C(F)(F)F)CC(=O)c2ccc(Cl)cc2)cc1`, the GI50 with 786-0 renal is 20.7 µM; with ACHN renal, 14.5 µM; in the assay with BT-549 breast, 20.6 µM; with COLO 205 colon, 18.6 µM; with HOP-92 NSCLC, 15.9 µM; in the assay on LOX IMVI melanoma, 14.3 µM. Further, the GI50 in the assay on MCF7 breast is 18.4 µM; in the assay on MDA-MB-231 breast, 10.4 µM; in the assay on NCI-H522 lung, 12.7 µM. Besides, the TGI in the assay with 786-0 renal was determined as 57.8 µM; with ACHN renal, 27.6 µM; in the assay with BT-549 breast it was 65.3 µM; in the assay with COLO 205 colon it was 40.7 µM; in the assay on HOP-92 NSCLC, 41.4 µM; with LOX IMVI melanoma, 28.8 µM. The results for the TGI with MCF7 breast, in the assay with MDA-MB-231 breast and in the assay on NCI-H522 lung were over 100 µM, 24.4 µM and 30 µM, respectively.

As to `COc1cccc(C2C3=C(COC3=O)N(CCO)c3cc4c(cc32)OCO4)c1` (configuration not stated), the GI50 in the assay on 786-0 renal was 0.37 µM; in the assay with ACHN renal it was 3.92 µM; with BT-549 breast it was 0.45 µM; with COLO 205 colon, 0.191 µM; with LOX IMVI melanoma, 0.451 µM; in the assay with MCF7 breast, 0.185 µM. In addition, the GI50 with MDA-MB-231 breast was 1.28 µM; in the assay with NCI-H522 lung, 0.051 µM; with SR leukemia, 0.0795 µM. Further, the TGI in the assay with 786-0 renal is over 50 µM; in the assay on ACHN renal it was over 50 µM; in the assay with BT-549 breast it was over 45.1 µM; with COLO 205 colon, 0.854 µM; with LOX IMVI melanoma, over 50 µM; in the assay with MCF7 breast, over 50 µM. Besides, the TGI in the assay on MDA-MB-231 breast was 45.8 µM; in the assay on NCI-H522 lung it was 0.187 µM; in the assay with SR leukemia it was 0.227 µM.
